A short description of data set [1]: Pharmacokinetics of PEGylated protease inhibitor prodrugs in rats. The following applies: prodrug in plasma. The class given is in vivo, male Sprague-Dawley rats. On the set-up: AUCall / AUC: concentration or dose not given beside the values. As for the experimental part: Pharmacokinetic analysis of protease inhibitors described herein was conducted. To evaluate the pharmacokinetics of PEGylated protease inhibitor conjugates with releasable lipophilic attachments, test compounds were administered to male Sprague-Dawley rats.
At various times following test article administration, serial blood samples were collected from indwelling jugular vein catheters and transferred to micro-tubes containing 7.5 μL of 20% w/v K2EDTA as an anticoagulant. Following processing of the blood samples to plasma (10 minutes at 10000 rpm, Centrifuge Model: Kubota 3500), plasma concentrations of the test article or corresponding PEGylated molecule released from the test article was measured using LC-MS/MS methods. Pharmacokinetic parameters were estimated using noncompartmental methods.
Table 3 presents a summary of pharmacokinetic parameters of PEGylated protease inhibitor prodrugs, wherein Cmax is the maximum (peak) concentration, AUCall represents the area under the concentration-time curve from zero to time of last concentration value, T½ is half life, and MRTlast is the mean residence time to last observable concentration

Data set [2] can be described thus: Pharmacokinetics of released PEGylated protease inhibitor following P.O. administration of prodrugs in rats. It counts as in vivo, male Sprague-Dawley rats. On the set-up: AUCall Mean: concentration or dose not given beside the values; C24 Mean: unit not given here. The following applies: rats (n = 4-5); for C24 Mean: concentration at 24 hours. Put shortly: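 Prodrugs given orally to male Sprague-Dawley rats, with serial blood via jugular catheter into K2EDTA. Plasma levels of test article or released PEGylated inhibitor measured by LC-MS/MS. PK parameters from noncompartmental analysis.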

Where [3] appears, read: mPEG6-atazanavir in plasma after PO administration of mPEG6-ATV or of the listed prodrug.
Setting [4] is: mPEG3-atazanavir in plasma after PO administration of mPEG3-ATV or of the listed prodrug.
Where [5] appears, read: mPEG5-atazanavir in plasma after PO administration of mPEG5-ATV or of the listed prodrug.

Where two headings read alike, the source gives them in different places.

As for `COCCOCCOCCOCCOCCOCCOC(=O)NC(C(=O)NC(Cc1ccccc1)C(CN(Cc1ccc(-c2ccccn2)cc1)NC(=O)C(NC(=O)OC)C(C)(C)C)OC(=O)C(N)CC(C)C)C(C)(C)C.Cl` [mPEG6-Atazanavir-L-Leucine], in data set [1], the MRTlast was determined as 1.72 ± 0.237 h and the “t½(z)” value came out at 2.02 ± 1.07 h. In data set [1] (mean ± SD), the AUCall was 107 ± 62.4 ng·h/mL and the Cmax was 55.5 ± 41.6 ng/mL. Besides, in data set [2] (setting [3]), the “AUCall Mean” value was 148 ng·h/mL, the “Cmax Mean” value worked out at 9.49 ng/mL, the “MRT last Mean” value amounted to 10.2 h and the “Tmax Median” value came out at 0.500 h.
As for `CCOCO[C@@H](CN(Cc1ccc(-c2ccccn2)cc1)NC(=O)[C@@H](NC(=O)OC)C(C)(C)C)[C@H](Cc1ccccc1)NC(=O)[C@@H](NC(=O)OCCOCCOCCOC)C(C)(C)C` [mPEG3-Atazanavir-methyl ethyl ether, mPEG3-Atazanavir Methyl Ethyl Ether], in data set [1], the MRTlast stood at 2.44 ± 0.920 h and the “t½(z)” value stood at 9.41 ± 3.35 h. For the same compound, the “Cmin(24 hr)” value in data set [1] (24 hr) worked out at 0.797 ± 0.260 ng/mL. In data set [1] (mean ± SD), the AUCall worked out at 6590 ± 2150 ng·h/mL and the Cmax is 1600 ± 442 ng/mL. For the same compound, in data set [2] (setting [4]), the “C24 Mean” value is on record as 1.20, the “AUCall Mean” value is 822 ng·h/mL, the “Cmax Mean” value was 190 ng/mL and the “MRT last Mean” value amounted to 3.29 h. Also, the “Tmax* Median” value in data set [2] (setting [4]) turned out to be 0.750 h.
“mPEG3-atazanavir-ethoxy-CME-Leu-Leu [mPEG-3-Atazanavir-Ethoxy-CM-Leu-Leu]”: in data set [1], the MRTlast amounted to 1.01 ± 0.095 h and the “t½(z)” value came to 1.21 NC^ hr. Moreover, in data set [1] (mean ± SD), the AUCall was 8.27 ± 3.06 ng·h/mL and the Cmax was determined as 2.95 ± 1.30 ng/mL. Further, in data set [2] (setting [4]), the “AUCall Mean” value was found to be 148 ng·h/mL, the “Cmax Mean” value turned out to be 6.42 ng/mL, the “MRT last Mean” value amounted to 16.5 h and the “Tmax* Median” value was 9.00 h.
For `COCCOCCOCCOC(=O)NC(C(=O)NC(Cc1ccccc1)C(CN(Cc1ccc(-c2ccccn2)cc1)NC(=O)C(NC(=O)OC)C(C)(C)C)OC(=O)COCCOC(=O)C(N)Cc1ccccc1)C(C)(C)C.Cl` (stereo not drawn) [mPEG3-Atazanavir-CME-phenylalanine HCl, mPEG3-atazanavir-CME-phenylalanine], in data set [1], the MRTlast turned out to be 2.36 ± 3.57 h. In addition, in data set [1] (mean ± SD), the AUCall stood at 10.2 ± 8.7 ng·h/mL and the maximum concentration (Cmax) is listed as 7.98 ± 6.06 ng/mL. In data set [2] (setting [4]), the “AUCall Mean” value was 99.5 ng·h/mL, the “Cmax Mean” value worked out at 4.48 ng/mL, the “MRT last Mean” value is 18.5 h and the “Tmax* Median” value stood at 6.00 h.
For the compound `COCCOCCOCCOCCOCCOC(=O)NC(C(=O)NC(Cc1ccccc1)C(CN(Cc1ccc(-c2ccccn2)cc1)NC(=O)C(NC(=O)OC)C(C)(C)C)OC(=O)COCCOC(=O)C(N)CC(C)C)C(C)(C)C.Cl` (stereo not drawn) [mPEG5-Atazanavir-CME-Leucine HCl, mPEG5-Atazanavir-CME-Leucine], the MRTlast in data set [1] worked out at 0.250 ± 0.000 h. Further, in data set [1] (mean ± SD), the AUCall was 0.119 ± 0.0826 ng·h/mL and the maximum concentration (Cmax) is 0.45 ± 0.330 ng/mL. Further, in data set [2] (setting [5]), the “AUCall Mean” value amounted to 65.6 ng·h/mL, the “Cmax Mean” value turned out to be 2.88 ng/mL, the “MRT last Mean” value amounted to 16.5 h and the “Tmax Median” value is 9.00 h.
For the compound `COCCOCCOCCOC(=O)N[C@H](C(=O)N[C@@H](Cc1ccccc1)[C@H](CN(Cc1ccc(-c2ccccn2)cc1)NC(=O)[C@@H](NC(=O)OC)C(C)(C)C)OCOC)C(C)(C)C` [mPEG3-Atazanavir-methyl methyl ether, mPEG3-Atazanavir Methyl Methyl Ether], in data set [1], the MRTlast turned out to be 3.00 ± 0.350 h and the “t½(z)” value came out at 4.03 ± 1.33 h. In addition, the “Cmin(24 hr)” value in data set [1] (24 hr) came out at 6.52 ± 3.57 ng/mL. Besides, in data set [1] (mean ± SD), the AUCall was 7740 ± 935 ng·h/mL and the Cmax was 1680 ± 150 ng/mL. For the same compound, in data set [2] (setting [4]), the “AUCall Mean” value was 110 ng·h/mL, the “Cmax Mean” value was 23.0 ng/mL, the “MRT last Mean” value came to 3.26 h and the “Tmax* Median” value worked out at 1.00 h.
With `COCCOCCOCCOC(=O)NC(C(=O)NC(Cc1ccccc1)C(CN(Cc1ccc(-c2ccccn2)cc1)NC(=O)C(NC(=O)OC)C(C)(C)C)OC(=O)CCCC(=O)O)C(C)(C)C` (stereo not drawn) [mPEG3-Atazanavir-glutaric acid], in data set [1], the MRTlast was 8.23 ± 3.48 h and the “t½(z)” value was 7.69 ± 2.54 h. For the same compound, the “Cmin(24 hr)” value in data set [1] (24 hr) is given as 2.68 ± 1.51 ng/mL. Further, in data set [1] (mean ± SD), the AUCall came out at 351 ± 50.2 ng·h/mL and the highest concentration (Cmax) turned out to be 61.3 ± 52.7 ng/mL. Further, in data set [2] (setting [4]), the “AUCall Mean” value was determined as 53.8 ng·h/mL, the “MRT last Mean” value came out at 19.5 h and the “Tmax* Median” value is 24.0 h.
For the compound Methoxyacetate Ester-mPEG5-Atazanavir, in data set [1], the MRTlast was found to be 5.81 ± 2.95 h and the “t½(z)” value came out at 6.30 ± 2.06 h. In data set [1] (mean ± SD), the AUCall was determined as 298 ± 121 ng·h/mL and the highest concentration (Cmax) was found to be 38.7 ± 13.8 ng/mL. Also, in data set [2] (setting [5]), the “AUCall Mean” value came to 298 ng·h/mL, the “Cmax Mean” value was determined as 38.7 ng/mL, the “MRT last Mean” value is 5.81 h and the “Tmax Median” value amounted to 1.50 h.
Consider `COCCOCCOCCOC(=O)NC(C(=O)NC(Cc1ccccc1)C(CN(Cc1ccc(-c2ccccn2)cc1)NC(=O)C(NC(=O)OC)C(C)(C)C)OC(=O)COCCOC(=O)C(Cc1ccccc1)NC(=O)C(N)Cc1ccccc1)C(C)(C)C.Cl` (stereo not drawn) [mPEG3-atazanavir-CME-phe-phenylalanine, mPEG3-Atazanavir-CME-PhePhenylalanine], for which the MRTlast in data set [1] came out at 0.696 ± 0.381 h. Besides, in data set [1] (mean ± SD), the AUCall turned out to be 0.919 ± 0.968 ng·h/mL and the Cmax is 0.772 ± 0.253 ng/mL. In data set [2] (setting [4]), the “AUCall Mean” value was determined as 120 ng·h/mL, the “Cmax Mean” value stood at 6.26 ng/mL, the “MRT last Mean” value was determined as 16.2 h and the “Tmax* Median” value was found to be 1.25 h.
In the case of “Acetate Ester-mPEG5-Atazanavir [Acetate-OCHMe—OCO2-mPEG5-Atazanavir]”, in data set [1], the MRTlast amounted to 6.21 ± 3.38 h and the “t½(z)” value is 4.82 ± 3.10 h. In data set [1] (mean ± SD), the AUCall worked out at 616 ± 156 ng·h/mL and the Cmax was 115 ± 29.0 ng/mL. In data set [2] (setting [5]), the “AUCall Mean” value came out at 616 ng·h/mL, the “Cmax Mean” value worked out at 115 ng/mL, the “MRT last Mean” value came out at 6.21 h and the “Tmax Median” value stood at 0.750 h.
In the case of `CCOC(C)OC(CN(Cc1ccc(-c2ccccn2)cc1)NC(=O)C(NC(=O)OC)C(C)(C)C)C(Cc1ccccc1)NC(=O)C(NC(=O)OCCOCCOCCOC)C(C)(C)C` (mixture of isomers) [1-ethoxyethoxy-mPEG3-Atazanivir, ethoxy ethoxy mPEG3-atazanavir], in data set [1], the MRTlast is 1.62 ± 0.350 h and the “t½(z)” value was 2.01 ± 0.88 h. Further, the “Cmin(24 hr)” value in data set [1] (24 hr) stood at 0.370 ± 0.455 ng/mL. For the same compound, in data set [1] (mean ± SD), the AUCall is 3950 ± 2740 ng·h/mL and the Cmax is listed as 1370 ± 549 ng/mL. In data set [2] (setting [4]), the “AUCall Mean” value was found to be 500 ng·h/mL, the “Cmax Mean” value is listed as 154 ng/mL, the “MRT last Mean” value amounted to 2.35 h and the “Tmax* Median” value was determined as 0.500 h.
For the compound `COCCOCCOCCOC(=O)N[C@H](C(=O)N[C@@H](Cc1ccccc1)[C@H](CN(Cc1ccc(-c2ccccn2)cc1)NC(=O)[C@@H](NC(=O)OC)C(C)(C)C)OC(=O)[C@H](Cc1ccccc1)NC(=O)[C@@H](N)CC(C)C)C(C)(C)C.Cl` [Leu-Phe-mPEG3-Atazanavir, Leu-Phe-mPEG3-Atazanavir Hydrochloride], the mean residence time (MRT last) in data set [1] (male, Sprague-Dawley, rat, in vivo) is 3.42 ± 0.916 h. Moreover, the concentration at 24 hr in data set [1] (male, Sprague-Dawley, rat, in vivo, 24 hr, read-out: Cmin(24 hr)) was found to be 0.154 ± 0.307 ng/mL. The AUC in data set [1] (male, Sprague-Dawley, rat, in vivo, mean ± SD) came out at 157 ± 30.3 ng·h/mL. Besides, the highest concentration (Cmax) in data set [1] (male, Sprague-Dawley, rat, in vivo, mean ± SD, read-out: Cmax) was 41.9 ± 7.92 ng/mL. Besides, in data set [1] (male, Sprague-Dawley, rat, in vivo, read-out: t½(z) (converted)), the half-life was 3.2 ± 0.981 h. In addition, in data set [2] (setting [4]), the “C24 Mean” value was 2.35, the “AUCall Mean” value was found to be 448 ng·h/mL, the “Cmax Mean” value amounted to 84.9 ng/mL and the “MRT last Mean” value is 7.56 h. Moreover, the “Tmax* Median” value in data set [2] (setting [4]) is 2.00 h.
Consider `COCCOCCOCCOCCOCCOC(=O)N[C@H](C(=O)N[C@@H](Cc1ccccc1)[C@H](CN(Cc1ccc(-c2ccccn2)cc1)NC(=O)[C@@H](NC(=O)OC)C(C)(C)C)OC(=O)[C@H](Cc1ccccc1)NC(=O)[C@@H](N)CC(C)C)C(C)(C)C.Cl` [Leu-Phe-mPEG5-Atazanavir HCl, Leu-Phe-mPEG5-Atazanavir Hydrochloride], for which, in data set [1], the MRTlast was 7.57 ± 7.76 h and the “t½(z)” value came out at 0.825 h. Besides, the “Cmin(24 hr)” value in data set [1] (24 hr) stood at 1.16 ± 2.31 ng/mL. Moreover, in data set [1] (mean ± SD), the AUCall came to 53.8 ± 34.1 ng·h/mL and the Cmax is 16.5 ± 14.9 ng/mL. In data set [2] (setting [5]), the “AUCall Mean” value stood at 147 ng·h/mL, the “Cmax Mean” value amounted to 25.6 ng/mL, the “MRT last Mean” value was 9.33 h and the “Tmax Median” value was determined as 1.50 h.

The values above are taken from patent publication US20120108501A1, “Protease Inhibitors” (priority 2009, published 2012).
